Assay results taken from ChEMBL document CHEMBL4184256, “Synthesis and biological evaluation of longanlactone analogues as neurotrophic agents” (Bioorg Med Chem Lett, 2018).
Active and inactive are the calls of the source. No cut-off for these calls is given here.

Key:
[1] = tested on: N2a; experiment: Neurotrophic activity in mouse Neuro2a cells assessed as increase in neurite length at 0.01 uM incubated for 48 hrs relative to untreated control; assay type: functional
[2] = tested on: N2a; experiment: Neurotrophic activity in mouse Neuro2a cells assessed as increase in BDNF mRNA expression at 0.1 uM incubated for 2 hrs by RT-qPCR method relative to untreated control
[3] = tested on: N2a; experiment: Neurotrophic activity in mouse Neuro2a cells assessed as increase in neurite length at 0.1 uM incubated for 48 hrs relative to untreated control; assay type: functional
[4] = tested on: N2a; experiment: Cytotoxicity in mouse Neuro2a cells assessed as reduction in cell viability by MTT assay; assay type: cell-based
[5] = tested on: N2a; experiment: Neurotrophic activity in mouse Neuro2a cells assessed as increase in NT3 mRNA expression at 0.1 uM incubated for 2 hrs by RT-qPCR method relative to untreated control
[6] = tested on: N2a; experiment: Neurotrophic activity in mouse Neuro2a cells assessed as increase in BDNF mRNA expression at 0.01 uM incubated for 2 hrs by RT-qPCR method relative to untreated control
[7] = tested on: N2a; experiment: Neurotrophic activity in mouse Neuro2a cells assessed as increase in NT3 mRNA expression at 0.01 uM incubated for 2 hrs by RT-qPCR method relative to untreated control

Row | SMILES | Activity [1] [%] | Activity [2] | Activity [3] [%] | IC50 [4] [µM] | Activity [5] | Activity [6] | Activity [7]
1 | C#CC[C@@H]1C[C@H](n2cccc2C(C)=O)C(=O)O1 | 8.03 | Active | 37.01 | 121 | inactive | – | –
2 | C#CC[C@H]1C[C@H](n2cccc2C(C)=O)C(=O)O1 | 9.04 | – | 20.95 | > 100 | – | – | –
3 | CC(=O)c1cccn1[C@H]1C[C@@H](Cc2cn(Cc3ccccc3)nn2)OC1=O | 5.41 | – | 15.62 | 91.6 | – | – | –
4 | CC(=O)c1cccn1[C@H]1C[C@@H](Cc2cn([C@H]3C[C@H](n4cc(C)c(=O)[nH]c4=O)O[C@@H]3CO)nn2)OC1=O | 3.67 | – | 6.61 | 96.2 | – | – | –
5 | CC(=O)c1cccn1[C@H]1C[C@H](Cc2cn(Cc3ccccc3)nn2)OC1=O | -2.23 | – | 17.02 | 66.9 | – | – | –
6 | C#CC[C@@H]1C[C@H](n2cccc2)C(=O)O1 | 6.56 | – | 10.9 | ≥ 100 | – | – | –
7 | CC(=O)c1cccn1[C@H]1C[C@H](CC#Cc2ccc([N+](=O)[O-])cc2)OC1=O | 1.43 | – | 13.27 | > 100 | – | – | –
8 | CC(=O)c1cccn1[C@H]1C[C@@H](CC#Cc2ccc([N+](=O)[O-])cc2)OC1=O | -7.58 | – | 9.11 | > 100 | – | – | –
9 | C#CC[C@H]1C[C@H](n2cccc2)C(=O)O1 | 12.15 | – | 14.56 | > 100 | – | – | –
10 | C#CC[C@@H]1C[C@H](n2cccc2C(=O)CC)C(=O)O1 | 11.63 | – | 9.47 | 40.6 | – | – | –
11 | C#CC[C@H]1C[C@H](n2cccc2C(=O)CC)C(=O)O1 | 4.63 | – | 9.5 | 40.7 | – | – | –
12 | CC(=O)c1cccn1[C@H]1C[C@H](Cc2cn([C@H]3C[C@H](n4cc(C)c(=O)[nH]c4=O)O[C@@H]3CO)nn2)OC1=O | 9.52 | – | 14.8 | 95.8 | – | – | –
13 | C#CC[C@@H]1C[C@H](n2cccc2C(=O)C(F)(F)F)C(=O)O1 | 33.74 | – | 41.02 | > 100 | – | Active | inactive
14 | C#CC[C@H]1C[C@H](n2cccc2C(=O)C(F)(F)F)C(=O)O1 | 7.76 | – | 22.22 | 97.8 | – | – | –
